# Measured values taken from patent US11274083B2, “Substituted thiophenyl uracils, salts thereof and the use thereof as herbicidal agents” (Syngenta Crop Protection AG, priority 2017, dated 2022).
# How the values were obtained:
# Format in all cases: in vivo
# Amaranthus retroflexus = experiment: Herbicidal action post-emergence, greenhouse pot test; conditions: application rate 20 g/ha
# Procedure: (§1) Seeds of mono- and dicotyledonous weed plants and crop plants were laid out in sandy loam soil in plastic or wood-fiber pots, covered with soil and grown under controlled growth conditions in a greenhouse. 2 to 3 weeks after sowing, the trial plants were treated at the one-leaf stage. The compounds of the invention formulated in the form of wettable powders (WP) or as emulsion concentrates (EC) were then sprayed onto the green parts of the plant as an aqueous suspension or emulsion with addition of 0.5% additive at a water application rate equivalent to 600 L/ha. After the trial plants had stood for about 3 weeks in the greenhouse, under optimal growth conditions, the effect of the preparations was scored visually by comparison with untreated controls. For example, 100% efficacy=plants have died, 0% efficacy=like control plants. Tables A1 to A16 below show the efficacies of selected compounds of the general formula (I) according to tables I.1 to I.50 on various harmful plants and an application rate corresponding to 80 g/ha or lower that were obtained by the aforementioned trial method.
# Viola tricolor = experiment: as above; conditions: application rate 20 g/ha
# Procedure: as §1
# Veronica persica = experiment: as above; conditions: application rate 20 g/ha
# Procedure: as §1
# Abutilon theophrasti = experiment: as above; conditions: application rate 20 g/ha
# Procedure: as §1
# Zea mays = experiment: Crop compatibility post-emergence, greenhouse pot test; conditions: application rate 20 g/ha
# Procedure: as §1, with “plants.” for “plants. Tables A1 to A16 below show the efficacies of selected compounds of the general formula (I) according to tables I.1 to I.50 on various harmful plants and an application rate corresponding to 80 g/ha or lower that were obtained by the aforementioned trial method.”
# (§2) Crop plant compatibilities were also scored correspondingly.
# (§3) The effects observed are reported here on selected crop plants by comparison, with the untreated controls (values in %).
# Oryza sativa = experiment: as above
# Procedure: as §1, with “plants.” for “plants. Tables A1 to A16 below show the efficacies of selected compounds of the general formula (I) according to tables I.1 to I.50 on various harmful plants and an application rate corresponding to 80 g/ha or lower that were obtained by the aforementioned trial method.”
# as §2, §3
# Triticum aestivum = experiment: as above
# Procedure: as §1, with “plants.” for “plants. Tables A1 to A16 below show the efficacies of selected compounds of the general formula (I) according to tables I.1 to I.50 on various harmful plants and an application rate corresponding to 80 g/ha or lower that were obtained by the aforementioned trial method.”
# as §2, §3
# Lolium rigidum [1] = experiment: Herbicidal action pre-emergence, greenhouse pot test; conditions: application rate 320 g/ha
# Text: Seeds of mono- and dicotyledonous weeds and crop plants were laid out in plastic or organic plant pots and covered with soil. The compounds of the invention formulated in the form of wettable powders (WP) or as emulsion concentrates (EC) were then applied to the surface of the covering soil as an aqueous suspension or emulsion with addition of 0.5% additive at a water application rate equivalent to 600 L/ha. After the treatment, the pots were placed in a greenhouse and kept under good growth conditions for the test plants. After about 3 weeks, the efficacy of the preparations was scored visually as a percentage by comparison with untreated controls. For example, 100% efficacy=plants have died. 0% efficacy=like control plants. Tables B1 to B17 below show the efficacies of selected compounds of the general formula (I) according to tables I.1 to I.50 on various harmful plants and an application rate corresponding to 320 g/ha or lower that were obtained by the aforementioned trial method.
# Matricaria inodora = experiment: Herbicidal action post-emergence, greenhouse pot test; conditions: application rate 20 g/ha
# Procedure: as §1
# Setaria viridis = experiment: as above; conditions: application rate 20 g/ha
# Procedure: as §1
# Echinochloa crus-galli = experiment: as above; conditions: application rate 20 g/ha
# Procedure: as §1
# Alopecurus myosuroides = experiment: as above; conditions: application rate 20 g/ha, scored visually after about 3 weeks vs untreated controls
# Procedure: as §1
# Stellaria media = experiment: as above; conditions: application rate 20 g/ha
# Procedure: as §1
# Pharbitis purpurea = experiment: as above
# Procedure: as §1
# Polygonum convolvulus = experiment: as above; conditions: application rate 20 g/ha
# Procedure: as §1
# Digitaria sanguinalis = experiment: as above; conditions: application rate 20 g/ha
# Lolium rigidum [2] = experiment: as above; conditions: application rate 20 g/ha
# Procedure: as §1
SMILES,Amaranthus retroflexus (Efficacy in %) (Amaranthus retroflexus) [%],Viola tricolor (Efficacy in %) (Viola tricolor) [%],Veronica persica (Efficacy in %) (Veronica persica) [%],Abutilon theophrasti (Efficacy in %) (Abutilon theophrasti) [%],Zea mays (Efficacy in %) (Zea mays) [%],Oryza sativa (Efficacy in %) (Oryza sativa; application rate 20 g/ha) [%],Triticum aestivum (Efficacy in %) (Triticum aestivum; application rate 20 g/ha) [%],Lolium rigidum (Efficacy in %) (Lolium rigidum [1]) [%],Matricaria inodora (Efficacy in %) (Matricaria inodora) [%],Setaria viridis (Efficacy in %) (Setaria viridis) [%],Echinochloa crus-galli (Efficacy in %) (Echinochloa crus-galli) [%],Alopecurus myosuroides (Efficacy in %) (Alopecurus myosuroides) [%],Stellaria media (Efficacy in %) (Stellaria media) [%],Pharbitis purpurea (Efficacy in %) (Pharbitis purpurea; application rate 20 g/ha) [%],Polygonum convolvulus (Efficacy in %) (Polygonum convolvulus) [%],Triticum aestivum (Efficacy in %) (Triticum aestivum; application rate 5 g/ha) [%],Digitaria sanguinalis (Efficacy in %) (Digitaria sanguinalis) [%],Lolium rigidum (Efficacy in %) (Lolium rigidum [2]) [%],Oryza sativa (Efficacy in %) (Oryza sativa; application rate 5 g/ha) [%],Pharbitis purpurea (Efficacy in %) (Pharbitis purpurea; application rate 5 g/ha) [%]
CC(Sc1cc(-n2c(=O)cc(C(F)(F)F)n(C)c2=O)c(F)cc1Cl)C(=O)OCCC(=O)OCc1ccccc1 (stereo not drawn) [I.1-6],100,100,100,100,10,0,0,,,,,,,,,,,,,
CC(Sc1cc(-n2c(=O)cc(C(F)(F)F)n(C)c2=O)c(F)cc1Cl)C(=O)OCCC(=O)OCC1CC1 (stereo not drawn) [I.1-7],,,,,,,,90,,,,,,,,,,,,
CCOC(=O)COC(=O)C(C)Sc1cc(-n2c(=O)cc(C(F)(F)F)n(C)c2=O)c(F)cc1Cl (stereo not drawn) [I.1-43],100,100,100,100,,,,,100,100,100,80,80,100,100,10,100,,,
CCNC(=O)CCOC(=O)C(C)Sc1cc(-n2c(=O)cc(C(F)(F)F)n(C)c2=O)c(F)cc1Cl (stereo not drawn) [I.1-153],100,100,100,100,,,,,100,100,100,90,100,100,100,,100,80,10,
CCN(C)C(=O)CCOC(=O)C(C)Sc1cc(-n2c(=O)cc(C(F)(F)F)n(C)c2=O)c(F)cc1Cl (stereo not drawn) [I.1-233],100,100,100,100,,20,,,100,100,100,90,100,100,100,,100,90,,
CCC(C)C(Sc1cc(-n2c(=O)cc(C(F)(F)F)n(C)c2=O)c(F)cc1Cl)C(=O)OCCC(=O)OC (stereo not drawn) [I.5-2],100,100,100,100,,,,,100,100,100,80,100,100,100,20,80,,,
CCOC(=O)CCOC(=O)C(Sc1cc(-n2c(=O)cc(C(F)(F)F)n(C)c2=O)c(F)cc1Cl)C(C)CC (stereo not drawn) [I.5-3],100,100,100,100,,,,,100,100,100,80,100,100,100,20,80,,,
CCCCOC(=O)COC(=O)CSc1cc(-n2c(=O)cc(C(F)(F)F)n(C)c2=O)c(F)cc1Cl [I.8-51],100,100,100,100,,0,20,,100,100,90,,,100,100,,100,,,
CCOC(=O)CCOC(=O)C(CC)Sc1cc(-n2c(=O)c(C)c(C(F)(F)F)n(C)c2=O)c(F)cc1Cl (stereo not drawn) [I.12-3],100,100,100,100,,0,20,,,100,100,,100,,100,,100,,,100
CCCCC(Sc1cc(-n2c(=O)cc(C(F)(F)F)n(C)c2=O)c(F)cc1Cl)C(=O)OCCC(=O)OCC (stereo not drawn) [I.47-3],100,100,100,100,,20,20,,100,100,80,,,100,100,,100,,,
